The values below are quoted from earlier work in patent US4983400A, “Controlled release combination of carbidopa/levodopa” (priority 1989, dated 1991).

For data set [1] the following is noted: in vivo.

In the case of `N[C@@H](Cc1ccc(O)c(O)c1)C(=O)O` [levodopa], the adverse reactions result in data set [1] was “severe adverse reactions, especially emesis, were experienced”. For the same compound, for the setting “human, in vivo, iv”, the “effect of high protein meals on plasma levodopa levels” value is listed as “without affecting plasma levodopa levels”. For the same compound, the motor oscillations entry (intravenous) is “reduces motor oscillations”. Further, for the setting “intravenous, high protein meals”, the “effect of high protein meals on response” value is reported as “decline in response”. Further, the “residual symptoms at optimal response” value (intravenous, some patients) was “either tremor and bradykinesia or mobility with dyskinesia”.
